According to ChEMBL document CHEMBL1201862, “PubChem BioAssay data set” (2004):
The source made the active and inactive calls.

Key:
[1] = target: Calcium/calmodulin-dependent protein kinase type II subunit gamma (Homo sapiens, UniProt Q13555); format: functional
[2] = target: Calcium/calmodulin-dependent protein kinase type II subunit delta (Homo sapiens, UniProt Q13557); format: functional
[3] = target: Calcium/calmodulin-dependent protein kinase type II subunit beta (Homo sapiens, UniProt Q13554); format: functional
Calcium/calmodulin-dependent protein kinase type II subunit beta, sequence (Q13554 whole entry): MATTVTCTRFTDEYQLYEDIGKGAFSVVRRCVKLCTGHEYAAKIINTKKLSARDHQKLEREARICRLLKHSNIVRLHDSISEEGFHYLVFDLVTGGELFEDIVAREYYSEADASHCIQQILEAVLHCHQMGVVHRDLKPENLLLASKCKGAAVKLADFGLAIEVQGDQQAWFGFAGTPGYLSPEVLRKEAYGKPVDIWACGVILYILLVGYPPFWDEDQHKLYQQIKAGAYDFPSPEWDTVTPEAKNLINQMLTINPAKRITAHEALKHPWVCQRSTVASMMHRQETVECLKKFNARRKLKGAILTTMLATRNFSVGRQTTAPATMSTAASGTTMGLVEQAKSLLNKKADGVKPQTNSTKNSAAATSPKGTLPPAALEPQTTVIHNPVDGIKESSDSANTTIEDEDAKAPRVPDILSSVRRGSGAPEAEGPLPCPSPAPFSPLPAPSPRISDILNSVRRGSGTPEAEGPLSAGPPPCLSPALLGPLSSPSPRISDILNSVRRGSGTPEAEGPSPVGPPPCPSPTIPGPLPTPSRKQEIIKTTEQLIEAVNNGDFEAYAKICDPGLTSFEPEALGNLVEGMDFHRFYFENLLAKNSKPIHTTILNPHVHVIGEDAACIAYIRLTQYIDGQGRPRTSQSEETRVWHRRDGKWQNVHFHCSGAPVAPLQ

[4] = target: Tyrosine-protein kinase FRK (Homo sapiens, UniProt P42685); format: functional;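 further: FRK tested as one member of a kinome panel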
Tyrosine-protein kinase FRK, sequence (P42685 whole entry): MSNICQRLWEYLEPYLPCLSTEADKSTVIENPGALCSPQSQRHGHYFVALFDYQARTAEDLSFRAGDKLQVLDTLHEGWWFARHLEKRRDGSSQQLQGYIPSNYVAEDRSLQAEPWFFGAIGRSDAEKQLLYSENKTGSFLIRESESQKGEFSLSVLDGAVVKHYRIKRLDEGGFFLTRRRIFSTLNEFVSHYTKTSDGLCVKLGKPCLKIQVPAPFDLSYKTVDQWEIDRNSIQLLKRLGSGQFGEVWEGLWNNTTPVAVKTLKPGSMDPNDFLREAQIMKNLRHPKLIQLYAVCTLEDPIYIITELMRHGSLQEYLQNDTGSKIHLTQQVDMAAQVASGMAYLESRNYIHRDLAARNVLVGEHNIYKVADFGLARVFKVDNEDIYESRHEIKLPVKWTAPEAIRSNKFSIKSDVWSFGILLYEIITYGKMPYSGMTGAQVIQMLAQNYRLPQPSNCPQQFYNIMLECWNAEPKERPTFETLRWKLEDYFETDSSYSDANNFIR

[5] = NIH-3T3 fibroblast cytotoxicity, dose response, cytotoxicity control, cell-based, fluorescence, Alamar Blue, secondary assay (AID 2327); format: functional;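 further: NIH-3T3 mouse fibroblasts cultured with fluconazole at 8 µg/mL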
[6] = fluconazole-exposed Candida albicans growth modulators – fluorescence, retest, confirmation (AID 2467); format: functional, cell-based
[7] = Trypanosoma cruzi growth suppression in host cells – NIH3T3 host cells, beta-gal luminescence, confirmation (AID 2044); format: functional, cell-based;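 further: intracellular parasites grown in NIH/3T3 mouse fibroblasts as host cells; luminescent beta-galactosidase reporter signal from transgenic T. cruzi replicating inside host cells; inhibitors lower the luminescence signal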
[8] = target: Serine/threonine-protein phosphatase (Candida dubliniensis (strain CD36 / CBS 7987 / NCPF 3949 / NRRLY-17841) (Yeast), UniProt B9W6M3); test: blockers of CaCl2-induced CDRE-lacZ signaling – S. cerevisiae, luminescence, secondary, dose response (AID 2388); format: functional, cell-based;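 further: yeast reporter cells carrying a calcineurin-responsive lacZ construct stimulated with calcium chloride; luminescent beta-galactosidase reporter signal in whole cells rather than isolated phosphatase activity; potency for inhibition where a drop in reporter signal means calcineurin blockade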
Serine/threonine-protein phosphatase, sequence (B9W6M3 whole entry): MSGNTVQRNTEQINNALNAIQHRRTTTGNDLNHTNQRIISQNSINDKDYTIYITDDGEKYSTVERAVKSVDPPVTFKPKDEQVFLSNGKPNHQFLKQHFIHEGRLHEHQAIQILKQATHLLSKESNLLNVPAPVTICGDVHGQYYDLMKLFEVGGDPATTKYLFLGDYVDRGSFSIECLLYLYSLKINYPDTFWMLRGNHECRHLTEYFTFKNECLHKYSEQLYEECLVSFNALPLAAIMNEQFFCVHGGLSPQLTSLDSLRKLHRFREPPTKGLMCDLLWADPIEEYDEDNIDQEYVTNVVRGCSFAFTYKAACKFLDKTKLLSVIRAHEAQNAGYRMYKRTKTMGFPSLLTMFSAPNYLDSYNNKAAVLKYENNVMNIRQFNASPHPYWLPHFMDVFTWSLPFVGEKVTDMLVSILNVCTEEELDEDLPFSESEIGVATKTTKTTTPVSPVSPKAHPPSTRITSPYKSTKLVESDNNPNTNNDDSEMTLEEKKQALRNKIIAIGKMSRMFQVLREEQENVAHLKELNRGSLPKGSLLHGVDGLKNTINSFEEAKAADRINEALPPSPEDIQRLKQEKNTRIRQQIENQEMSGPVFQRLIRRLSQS

[9] = NIH3T3 cell viability loss – ATP luminescence, mouse fibroblasts, counter-screen, dose response (AID 2010); format: functional, cell-based;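 further: cells exposed to compound for about 90 hours before reading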
[10] = system: Candida albicans; test: Candida growth reduction in fluconazole presence – CaCi-2 strain, Alamar Blue, dry powder, set 2, antifungal resistance reversal project, dose response (AID 488930); format: functional, organism-based
[11] = system: HEK293; test: EBV LMP1 TES2 canonical NF-kB signalling blockers – cell-based, HEK293, luciferase, cherry-pick, dose response (AID 588343); format: functional; conditions: Homo sapiens
[12] = system: Candida albicans; test: C. albicans growth inhibition with fluconazole – CaCi-2 strain, Alamar Blue, dry powder, set 4, dose response (AID 488943); format: functional, organism-based
[13] = system: Candida albicans; test: antifungal activity against resistant Candida strain – CaCi-8, fluconazole, Alamar Blue, dry powder, dose response (AID 488807); format: functional, organism-based
[14] = system: Candida albicans; test: Candida growth effect without fluconazole – C. albicans CaCi-2, dry powder, counter-screen for antifungal drug resistance project, dose response (AID 488802); format: functional, organism-based
[15] = system: Candida albicans; test: resistant Candida growth with fluconazole co-treatment – CaCi-8 strain, Alamar Blue, dry powder, set 2, dose response (AID 488909); format: functional, organism-based
[16] = system: NIH3T3; test: mammalian cell viability counter-check – Alamar Blue, fluconazole, dry powder, cytotoxicity control for antifungal drug resistance project, dose response (AID 488809); format: functional, cell-based; conditions: Mus musculus
[17] = target: ATP-dependent molecular chaperone HSP82 (Candida albicans (strain WO-1) (Yeast), UniProt C4YTQ8); test: steroid-induced GRE reporter decrease in yeast – S. cerevisiae, luminescence, Hsp90 inhibitor project, dose response (AID 2400); format: functional, cell-based;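 further: beta-galactosidase luminescence from glucocorticoid response element reporter as proxy for Hsp90 function; inhibitor potency where signal loss means Hsp90 inhibition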
ATP-dependent molecular chaperone HSP82, sequence (C4YTQ8 whole entry): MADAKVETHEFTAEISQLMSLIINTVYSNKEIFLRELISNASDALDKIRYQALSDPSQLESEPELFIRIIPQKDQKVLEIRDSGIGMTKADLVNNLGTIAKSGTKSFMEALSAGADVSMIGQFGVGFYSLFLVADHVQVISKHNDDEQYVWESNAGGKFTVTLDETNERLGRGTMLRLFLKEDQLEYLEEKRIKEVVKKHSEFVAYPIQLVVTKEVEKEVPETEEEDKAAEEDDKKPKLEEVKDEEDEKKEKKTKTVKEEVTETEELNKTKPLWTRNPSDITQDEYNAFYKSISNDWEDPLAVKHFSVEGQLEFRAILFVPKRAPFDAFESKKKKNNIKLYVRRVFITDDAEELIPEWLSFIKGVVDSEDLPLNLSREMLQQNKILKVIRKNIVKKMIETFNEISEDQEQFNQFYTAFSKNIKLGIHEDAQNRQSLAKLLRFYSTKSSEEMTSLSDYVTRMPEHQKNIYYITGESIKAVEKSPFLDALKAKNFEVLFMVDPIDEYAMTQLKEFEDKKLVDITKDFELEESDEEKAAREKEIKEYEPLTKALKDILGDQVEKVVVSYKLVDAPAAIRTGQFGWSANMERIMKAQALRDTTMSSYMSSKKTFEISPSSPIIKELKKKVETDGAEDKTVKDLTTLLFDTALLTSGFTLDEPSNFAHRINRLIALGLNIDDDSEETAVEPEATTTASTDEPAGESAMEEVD

[18] = target: Protein Wnt-3a (Mus musculus, UniProt P27467); test: antagonism of Wnt3a pathway luciferase reporter – Wnt-LIGHT cells, luminescence, selectivity assay for Gli-SUFU antagonist project, dose response (AID 651570); format: functional; conditions: read-out: IC50_Mean;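 further: Wnt-LIGHT reporter cells stimulated with conditioned medium from Wnt3a-producing cells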
Protein Wnt-3a, sequence (P27467 whole entry): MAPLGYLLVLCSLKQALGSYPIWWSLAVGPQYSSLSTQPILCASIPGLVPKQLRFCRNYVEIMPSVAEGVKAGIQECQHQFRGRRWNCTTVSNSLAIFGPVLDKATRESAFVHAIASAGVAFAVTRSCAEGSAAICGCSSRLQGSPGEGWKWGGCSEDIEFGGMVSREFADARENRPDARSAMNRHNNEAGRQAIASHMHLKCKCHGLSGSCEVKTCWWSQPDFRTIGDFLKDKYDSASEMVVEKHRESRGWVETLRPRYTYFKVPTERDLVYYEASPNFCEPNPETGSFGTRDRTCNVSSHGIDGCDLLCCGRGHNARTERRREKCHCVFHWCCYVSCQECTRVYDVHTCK

[19] = target: Melanin-concentrating hormone receptor 1 (Homo sapiens, UniProt Q99705); test: Late-stage fluorescence-based counterscreen for antagonists of the G-protein coupled receptor 7 (GPR7): cell-based dose response assay to identify antagonists of the melanin-concentrating hormone receptor 1 (MCHR1) Set 5.; format: functional
Melanin-concentrating hormone receptor 1, sequence (Q99705 whole entry): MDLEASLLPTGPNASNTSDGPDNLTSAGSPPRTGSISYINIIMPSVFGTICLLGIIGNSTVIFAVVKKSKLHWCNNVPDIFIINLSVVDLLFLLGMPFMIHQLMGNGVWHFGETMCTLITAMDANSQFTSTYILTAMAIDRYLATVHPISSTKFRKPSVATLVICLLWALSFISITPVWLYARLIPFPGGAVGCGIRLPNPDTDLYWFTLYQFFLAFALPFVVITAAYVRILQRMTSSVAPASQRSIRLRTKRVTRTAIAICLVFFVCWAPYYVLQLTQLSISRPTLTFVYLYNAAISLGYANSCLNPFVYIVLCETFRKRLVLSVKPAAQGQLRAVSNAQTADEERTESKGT

[20] = luciferase reporter signal suppression in cells – H4 neuroglioma cells, luminescence, dose response (AID 1990); format: functional, cell-based
[21] = system: HEK293; test: Fluorescence-based counterscreen for potentiators or agonists of NPY-Y2: cell-based high-throughput dose response assay to identify inhibitors of cyclic nucleotide gated ion channel (CNGC) activity. In this assay, the parental HEK293 cell line transfected with a cyclic-nucleotide gated ion channel (CNGC)-based cAMP sensor is used to measure inhibition of isoproterenol-induced CNGC activity by test compound.; format: functional; conditions: Homo sapiens
[22] = target: Sphingosine 1-phosphate receptor 2 (Homo sapiens, UniProt O95136); test: Dose Response Cell Based Assay for Antagonists of the S1P2 Receptor. [Related pubchem assays: 856, 736 ]; format: functional
Sphingosine 1-phosphate receptor 2, sequence (O95136 whole entry): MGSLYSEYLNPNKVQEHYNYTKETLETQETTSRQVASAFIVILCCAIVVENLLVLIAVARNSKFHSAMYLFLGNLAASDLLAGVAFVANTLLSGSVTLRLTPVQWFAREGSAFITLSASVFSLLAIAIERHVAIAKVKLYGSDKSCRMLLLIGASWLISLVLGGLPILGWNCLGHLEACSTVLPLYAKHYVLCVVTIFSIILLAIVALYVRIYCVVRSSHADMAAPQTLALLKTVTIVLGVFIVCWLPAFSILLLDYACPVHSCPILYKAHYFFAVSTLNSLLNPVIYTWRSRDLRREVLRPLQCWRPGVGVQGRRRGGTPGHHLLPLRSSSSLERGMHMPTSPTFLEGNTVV

[23] = system: BJ; test: BJ-TERT fibroblast viability loss – cell-based, RAS-independent, luminescence, dose response (AID 1933); format: functional; conditions: Homo sapiens
[24] = target: T1, Neuropeptide Y receptor type 2 (Homo sapiens, UniProt P49146); test: Fluorescence-based cell-based high-throughput dose response assay for agonists of NPY-Y2. [Related pubchem assays: 1703 (Screening assay (CNGC inhibitors).), 1359 (Screening assay (NPY-Y2 potentiators or agonists).), 1304 (Screening assay (NPY-Y1 potentiators or agonists).), 1710 (Screening assay (NPY-Y2 agonists).), 1791 (Summary AID.)]; format: functional
T1 sequence (P49146 whole entry): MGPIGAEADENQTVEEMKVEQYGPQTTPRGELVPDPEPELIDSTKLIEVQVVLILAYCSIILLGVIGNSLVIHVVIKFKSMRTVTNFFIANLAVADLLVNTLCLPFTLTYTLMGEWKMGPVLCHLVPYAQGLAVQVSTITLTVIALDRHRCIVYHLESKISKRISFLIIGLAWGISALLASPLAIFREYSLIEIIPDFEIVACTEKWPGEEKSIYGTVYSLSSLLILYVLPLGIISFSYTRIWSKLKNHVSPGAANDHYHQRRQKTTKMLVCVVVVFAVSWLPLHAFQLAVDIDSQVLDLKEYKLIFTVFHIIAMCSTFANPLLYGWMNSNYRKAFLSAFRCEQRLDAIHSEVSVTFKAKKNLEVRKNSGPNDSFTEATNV

[25] = Luminescence Cell-Based Dose Response HTS to Identify Inhibitors of 5'UTR Stem-Loop Driven Prion Protein mRNA Translation in H4 Neuroglioblastoma Cells. [Related pubchem assays: 1827 (Project Summary), 1813 (Primary HTS)]; format: functional
[26] = alpha-synuclein stem-loop luciferase translation blockers – H4 neuroglioma cells, luminescence, confirmation (AID 1988); format: functional, cell-based
[27] = system: BJ; test: cells; format: functional, cell-based; conditions: Homo sapiens
[28] = Luminescence-based dose response cell-based high throughput screening assay for cytotoxic compounds using the IEC-6 intestinal epithelial cell line. [Related pubchem assays: 1858 (Summary AID.), 1825 (Counterscreen.), 1907 (Confirmation screen.)]; format: functional
[29] = target: T2, Neuropeptide Y receptor type 1 (Homo sapiens, UniProt P25929); test: Fluorescence-based counterscreen for agonists of NPY-Y2: cell-based high-throughput dose response assay for agonists of NPY-Y1.; format: functional
T2 sequence (P25929 whole entry): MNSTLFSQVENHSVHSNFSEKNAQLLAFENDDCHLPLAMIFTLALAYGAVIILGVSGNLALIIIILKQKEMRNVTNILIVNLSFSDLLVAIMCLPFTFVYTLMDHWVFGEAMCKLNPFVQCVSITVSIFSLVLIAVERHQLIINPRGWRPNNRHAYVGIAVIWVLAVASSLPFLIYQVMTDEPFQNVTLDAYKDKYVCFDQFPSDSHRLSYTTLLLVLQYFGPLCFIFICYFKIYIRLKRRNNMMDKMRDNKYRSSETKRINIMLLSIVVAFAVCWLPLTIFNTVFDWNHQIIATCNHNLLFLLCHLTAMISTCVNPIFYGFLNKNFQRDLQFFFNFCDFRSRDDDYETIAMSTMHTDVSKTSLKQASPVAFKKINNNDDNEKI

[30] = system: BJ; test: BJ-TERT-LT-ST fibroblast viability loss – cell-based, RAS-independent, luminescence, dose response (AID 1935); format: functional; conditions: Homo sapiens;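 further: BJ fibroblasts immortalized with TERT plus LT and ST oncogenes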
[31] = DRD fibroblast viability loss – cell-based, non-viral oncogenic, luminescence, dose response (AID 1934); format: functional; conditions: Homo sapiens
[32] = HEK-293T viability loss after treatment – luminescence, T-cell screen hits, cytotoxicity control for TCR NF-kB inhibitor project, dose response (AID 489026); format: functional, cell-based;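 further: cells exposed to compound about 14 hours before the viability readout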
[33] = target: Latent membrane protein 1 (Human herpesvirus 4 (strain B95-8), UniProt P03230); test: LMP1 TES1 pathway selectivity over dsRED control – imaging, HEK293T, dual-color eGFP/dsRED, cherry-picks, selectivity assay for LMP1 NF-kB inhibitor project, dose response (AID 588398); format: functional, cell-based
Latent membrane protein 1, sequence (P03230 whole entry): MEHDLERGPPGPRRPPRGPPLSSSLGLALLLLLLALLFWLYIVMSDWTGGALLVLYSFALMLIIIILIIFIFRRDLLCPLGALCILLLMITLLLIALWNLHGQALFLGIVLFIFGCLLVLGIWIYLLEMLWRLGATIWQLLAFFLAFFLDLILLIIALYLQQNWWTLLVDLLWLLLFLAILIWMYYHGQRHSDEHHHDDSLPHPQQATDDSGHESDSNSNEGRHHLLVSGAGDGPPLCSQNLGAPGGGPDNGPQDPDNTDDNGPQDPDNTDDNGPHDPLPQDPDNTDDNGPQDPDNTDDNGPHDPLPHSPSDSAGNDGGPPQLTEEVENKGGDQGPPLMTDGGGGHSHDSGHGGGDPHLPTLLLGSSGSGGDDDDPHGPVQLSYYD

[34] = system: BJ; test: growth inhibition of engineered Ras-driven BJ cells – cell-based, alamar blue fluorescence, cherrypicked samples, dose response (AID 2631); format: functional; conditions: Homo sapiens;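 further: confirmatory dose-response assay in RAS-dependent BJ fibroblasts engineered with TERT, LT and ST, with cytotoxicity read by fluorescence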
[35] = system: INS1; test: INS-1E survival protection against cytokine death – cell-based, luminescence, retest, dose response (AID 449756); format: functional; conditions: Rattus norvegicus;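 further: cell death triggered by IL-1 beta plus TNF-alpha plus IFN-gamma mixture; protective hits raise ATP signal compared with cytokine alone wells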
[36] = activation of miR-122 Renilla sensor silencing – cell-based, Huh7 psiCHECK-miR122, Renilla luciferase, cherry-picked, dose response (AID 651956); format: functional;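 further: huh7 hepatoma cells stably carrying a psiCHECK-2 miR-122 sensor plasmid; renilla luciferase signal reporting endogenous miR-122 activity after 48 h compound exposure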
[37] = general mammalian cell viability loss – inhibitor set, cherry-pick, set 2, cytotoxicity control for miR-122 modulator project, dose response (AID 720697); format: functional, cell-based
[38] = general mammalian cell viability loss – activator set, cherry-pick, cytotoxicity control for miR-122 modulator project, dose response (AID 720690); format: functional, cell-based;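 further: HEK293T human cells scored for general mammalian cytotoxicity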
[39] = target: T3, CAAX prenyl protease 2 (Saccharomyces cerevisiae S288c, UniProt Q03530); format: biochemical
T3 sequence (Q03530 whole entry): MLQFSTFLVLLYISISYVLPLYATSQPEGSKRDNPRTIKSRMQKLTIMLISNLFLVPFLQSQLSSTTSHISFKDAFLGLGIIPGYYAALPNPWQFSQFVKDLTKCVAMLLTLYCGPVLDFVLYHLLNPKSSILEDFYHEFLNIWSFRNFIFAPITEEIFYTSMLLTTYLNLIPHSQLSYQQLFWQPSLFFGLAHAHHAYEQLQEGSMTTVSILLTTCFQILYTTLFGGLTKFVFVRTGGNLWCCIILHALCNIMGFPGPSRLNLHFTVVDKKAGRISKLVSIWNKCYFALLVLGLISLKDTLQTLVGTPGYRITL

[40] = target: T3, CAAX prenyl protease 2; test: inhibition of Rce1p peptide cleavage – biochemical, plate reader, dry powder retest, dose response (AID 588851)

Calcium/calmodulin-dependent protein kinase type II subunit delta, sequence (Q13557 whole entry): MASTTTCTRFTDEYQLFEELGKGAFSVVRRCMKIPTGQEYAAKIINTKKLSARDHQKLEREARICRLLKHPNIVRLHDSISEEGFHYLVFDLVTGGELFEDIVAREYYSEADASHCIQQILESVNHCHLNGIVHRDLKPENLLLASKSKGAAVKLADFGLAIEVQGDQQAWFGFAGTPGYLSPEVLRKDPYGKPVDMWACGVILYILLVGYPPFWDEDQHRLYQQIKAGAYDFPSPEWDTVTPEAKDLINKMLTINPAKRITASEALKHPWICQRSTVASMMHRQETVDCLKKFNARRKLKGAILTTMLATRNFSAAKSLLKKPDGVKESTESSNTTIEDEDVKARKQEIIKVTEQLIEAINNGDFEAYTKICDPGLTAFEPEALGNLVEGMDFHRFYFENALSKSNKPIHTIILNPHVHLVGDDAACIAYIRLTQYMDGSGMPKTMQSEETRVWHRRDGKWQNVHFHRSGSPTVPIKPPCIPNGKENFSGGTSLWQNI
Calcium/calmodulin-dependent protein kinase type II subunit gamma, sequence (Q13555 whole entry): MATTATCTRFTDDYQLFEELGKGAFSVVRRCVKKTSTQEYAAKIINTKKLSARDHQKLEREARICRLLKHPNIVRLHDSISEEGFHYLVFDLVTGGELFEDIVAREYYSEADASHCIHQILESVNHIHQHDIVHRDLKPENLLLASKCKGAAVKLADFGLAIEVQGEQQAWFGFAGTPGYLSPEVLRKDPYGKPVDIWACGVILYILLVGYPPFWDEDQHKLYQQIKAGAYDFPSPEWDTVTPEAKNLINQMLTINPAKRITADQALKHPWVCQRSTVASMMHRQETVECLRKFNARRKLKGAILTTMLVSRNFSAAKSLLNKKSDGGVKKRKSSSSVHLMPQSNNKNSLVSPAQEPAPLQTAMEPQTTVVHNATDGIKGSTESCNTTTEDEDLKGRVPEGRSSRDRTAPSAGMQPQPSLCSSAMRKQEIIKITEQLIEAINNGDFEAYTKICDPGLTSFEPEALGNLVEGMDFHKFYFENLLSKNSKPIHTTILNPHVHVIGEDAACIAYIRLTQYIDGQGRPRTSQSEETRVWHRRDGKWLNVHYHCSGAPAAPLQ

CCCC(=O)c1ccc(NCc2c[nH]nc2-c2ccc(C(F)(F)F)cc2)cc1
Ki [1]: 3980 nM (active)
Ki [2]: 3980 nM (active)
Ki [3]: 1260 nM (active)
Ki [4]: 2000 nM (active)

O=C(c1ccc(Cl)cc1)N1CCN(c2ccnc3cc(Cl)ccc23)CC1
EC50 [5]: > 150000 nM (inactive)
EC50 [6]: 742 nM (active)
EC50 [7]: 1340 nM (active)
EC50 [8]: > 180000 nM (inactive)
EC50 [9]: > 60000 nM (not active)
AC50 [10]: 522 nM (active)
AC50 [11]: 16400 nM (active)
AC50 [12]: 306 nM (active)
AC50 ([12]; Candida albicans): 362 nM (active)
AC50 [13]: 870 nM (active)
AC50 [14]: 3730 nM (active)
AC50 [15]: 3460 nM (active)
AC50 [16]: 22900 nM (active)
EC50 [17]: > 150000 nM (inactive)
IC50 [18]: 8300 nM (active)

COc1ccc(Oc2c(Cl)cnn(C3c4ccccc4CCc4ccccc43)c2=O)cc1
IC50 [19]: > 20000 nM (inactive)

O=C(NC(Nc1nc2ccc([N+](=O)[O-])cc2s1)(C(F)(F)F)C(F)(F)F)c1ccccc1
EC50 [20]: 394 nM (active)
EC50 [21]: > 35400 nM (not active)
IC50 [22]: 682 nM (active)
EC50 [23]: 1410 nM (active)
EC50 [24]: 31900 nM (not active)
EC50 [25]: 7500 nM (active)
EC50 [26]: 449 nM (active)
EC50 [27]: 1340 nM (active)
IC50 [28]: 1030 nM (active)
EC50 [29]: 35300 nM (not active)
EC50 [30]: 2850 nM (inconclusive)
EC50 [31]: 1660 nM (active)
IC50 [32]: > 80000 nM (inactive)
AC50 [11]: 208 nM (active)
AC50 [33]: 816 nM (active)
EC50 [34]: 727 nM (active)
AC50 [35]: 298 nM (active)
AC50 [36]: 1410 nM (active)
AC50 [37]: < 195 nM (active)
AC50 [38]: 546 nM (active)

CN(C(=O)COC(=O)c1cn(-c2ccccc2)nc1-c1ccccc1)C1CCS(=O)(=O)C1 (configuration not stated)
AC50 [39]: 679 nM (active)
AC50 [40]: 25100 nM (active)
